According to the supplement of paper PMC10307832:

Experiments:
Test in all cases: relative viability (nuclei count vs DMSO), 5 days (fraction); higher = more cells survive
[1] = compound: CCn1c(-c2nonc2N)nc2c(C#CC(C)(C)O)ncc(OC[C@H]3CCCNC3)c21 + CS(=O)(=O)N1CCN(Cc2cc3nc(-c4cccc5[nH]ncc45)nc(N4CCOCC4)c3s2)CC1 [Pictilisib] (partner 1 µM)
Summary of the method: (§1)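 A single step with final 0.05% Triton X-100, 1% formaldehyde and 1 ug/ml Hoechst fixed the cells and stained nuclei 5 days after treatment. Lung cancer cell lines in 1536-well plates had been treated by pin tool the day after seeding with one drug alone or a fixed anchor-drug dose plus five library-drug doses (not always all listed) in √10 steps, and nuclei were counted on 4× images. Relative viability is the ratio of nuclei in treated wells to nuclei in vehicle wells, taken as the median of duplicate plates.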

[2] = compound: CCn1c(-c2nonc2N)nc2c(C#CC(C)(C)O)ncc(OC[C@H]3CCCNC3)c21 + CC(=O)c1c(C)c2cnc(Nc3ccc(N4CCNCC4)cn3)nc2n(C2CCCC2)c1=O [Palbociclib] (partner 0.5 µM)
Summary of the method: as §1

BAM7 + Palbociclib = compound: CCOC1=CC=CC=C1N=NC2=C(NN(C2=O)C3=NC(=CS3)C4=CC=CC=C4)C [BAM7] + CC(=O)c1c(C)c2cnc(Nc3ccc(N4CCNCC4)cn3)nc2n(C2CCCC2)c1=O [Palbociclib] (partner 0.5 µM)
Summary of the method: as §1

[3] = compound: CCn1c(-c2nonc2N)nc2c(C#CC(C)(C)O)ncc(OC[C@H]3CCCNC3)c21 + CC(=O)Nc1cccc(-n2c(=O)n(C3CC3)c(=O)c3c(Nc4ccc(I)cc4F)n(C)c(=O)c(C)c32)c1 [Trametinib] (partner 0.02 µM)
Summary of the method: as §1

| Cell Line | relative viability ([1]; first compound 0.01 µM) | relative viability ([1]; first compound 0.03162 µM) | relative viability ([1]; first compound 0.1 µM) | relative viability ([1]; first compound 0.3162 µM) | relative viability ([1]; first compound 1 µM) | relative viability ([2]; first compound 0.01 µM) | relative viability ([2]; first compound 0.03162 µM) | relative viability ([2]; first compound 0.1 µM) | relative viability ([2]; first compound 0.3162 µM) | relative viability ([2]; first compound 1 µM) | relative viability (BAM7 + Palbociclib; first compound 0.5 µM) | relative viability (BAM7 + Palbociclib; first compound 5 µM) | relative viability (BAM7 + Palbociclib; first compound 15.81 µM) | relative viability (BAM7 + Palbociclib; first compound 50 µM) | relative viability ([3]; first compound 0.01 µM) | relative viability ([3]; first compound 0.03162 µM) | relative viability ([3]; first compound 0.1 µM) | relative viability ([3]; first compound 0.3162 µM) | relative viability ([3]; first compound 1 µM) |
| --- | --- | --- | --- | --- | --- | --- | --- | --- | --- | --- | --- | --- | --- | --- | --- | --- | --- | --- | --- |
| NCI-H2023 | 0.214 | 0.269 | 0.207 | 0.196 | 0.236 | 0.357 | 0.379 | 0.331 | 0.205 | 0.262 | 0.375 | 0.316 | 0.293 | 0.327 | 0.639 | 0.55 | 0.422 | 0.432 | 0.288 |
| NCI-H2085 | 0.436 | 0.437 | 0.373 | 0.404 | 0.462 | 0.49 | 0.426 | 0.481 | 0.455 | 0.48 | 0.462 | 0.483 | 0.446 | 0.45 | 0.452 | 0.539 | 0.439 | 0.427 | 0.59 |
| NCI-H2087 | 0.823 | 0.843 | 0.805 | 0.891 | 0.894 | 0.214 | – | 0.225 | 0.248 | 0.293 | 0.272 | 0.255 | 0.229 | 0.292 | 0.23 | – | 0.175 | 0.223 | 0.174 |
| NCI-H2126 | 0.548 | 0.496 | 0.494 | 0.442 | 0.449 | 0.325 | 0.319 | 0.365 | 0.335 | 0.377 | 0.334 | 0.332 | 0.345 | 0.362 | 0.568 | 0.566 | 0.65 | 0.578 | 0.61 |
| NCI-H2170 | 0.301 | 0.296 | 0.342 | 0.312 | 0.281 | 0.391 | 0.441 | 0.378 | 0.372 | 0.435 | 0.38 | 0.381 | 0.329 | 0.319 | 0.957 | 0.982 | 0.9 | 0.865 | 1.11 |
| NCI-H2228 | 0.295 | 0.386 | 0.347 | 0.216 | 0.294 | 0.686 | 0.752 | 0.821 | 0.574 | 0.467 | 0.853 | 0.966 | 1.19 | 1.07 | 0.553 | 0.449 | 0.468 | 0.325 | 0.197 |
| NCI-H2347 | 0.456 | 0.675 | 0.0164 | 0.858 | 0.472 | 0.394 | 0.445 | 0.492 | 0.422 | 0.435 | 0.426 | 0.457 | 0.425 | 0.367 | 0.251 | 0.314 | 0.242 | 0.263 | 0.332 |
| NCI-H2405 | 0.407 | 0.492 | – | 0.445 | 0.406 | 0.52 | 0.539 | 0.472 | 0.481 | 0.511 | 0.507 | 0.577 | 0.546 | 0.553 | 0.664 | 0.683 | 0.646 | 0.598 | 0.604 |
| NCI-H3122 | 0.606 | 0.612 | 0.634 | 0.598 | 0.55 | 0.177 | 0.18 | 0.176 | 0.175 | 0.219 | 0.174 | 0.225 | 0.186 | 0.198 | 0.242 | 0.224 | 0.236 | 0.192 | 0.242 |
| PC-3 [JPC-3] | 0.754 | 0.744 | 0.762 | 0.695 | 0.643 | 0.529 | – | 0.556 | 0.557 | 0.531 | 0.49 | 0.533 | 0.462 | 0.531 | 0.702 | – | 0.732 | 0.648 | 0.687 |
| PC-14 | 0.633 | 0.754 | 0.75 | 0.72 | 0.564 | 0.581 | 0.543 | 0.542 | 0.476 | 0.516 | 0.592 | 0.479 | 0.335 | 0.42 | 0.716 | 0.772 | 0.613 | 0.446 | 0.444 |
| RERF-LC-KJ | 0.578 | 0.566 | 0.556 | 0.567 | 0.535 | 1.02 | 1.06 | 1.02 | 0.915 | 1.05 | 0.953 | 0.876 | 0.609 | 0.63 | 0.854 | 0.818 | 0.842 | 0.778 | 0.835 |
| SK-LU-1 | 0.64 | 0.715 | 0.498 | 0.575 | 0.617 | 0.405 | 0.455 | 0.323 | 0.414 | 0.39 | 0.399 | 0.405 | 0.43 | 0.453 | 0.527 | 0.495 | 0.458 | 0.443 | 0.441 |
| SK-MES-1 | 0.399 | 0.351 | 0.363 | 0.339 | 0.314 | 0.306 | 0.298 | 0.299 | 0.318 | 0.308 | 0.332 | 0.35 | 0.308 | 0.272 | 0.61 | 0.52 | 0.569 | 0.465 | 0.503 |
| SW 1573 | 0.432 | 0.395 | 0.453 | 0.447 | 0.365 | 0.334 | 0.402 | 0.326 | 0.241 | 0.215 | 0.433 | 0.396 | 0.356 | 0.391 | 0.438 | 0.553 | 0.476 | 0.381 | 0.33 |
